Values quoted from earlier work as cited in patent publication US9981985B2, “Pharmaceutical formulations containing 3-(4-cinnamyl-l-piperazinyl) amino derivatives of 3-formylrifamycin SV and 3-formylrifamycin S and a process of their preparation” (Adipharm EAD, priority 2012, dated 2018).

Columns and labels:
[1] = in vivo
[2] = in vivo tests, in comparison to rifampicin; from U.S. Pat. No. 5,095,108
[3] = in vivo; remark: listed apart in the source
[4] = from U.S. Pat. No. 5,095,108

Molecule | pharmacokinetic properties [1] | resorption [1] | therapeutic effect [2] | serum half-life [3] | acute toxicity [4]
sodium salt of 3-(4-cinnamyl-1-piperazinyl)-iminomethyl rifamycin SV [Compound Ib] | better | faster |  |  | 
CO[C@H]1/C=C/O[C@@]2(C)Oc3c(C)c(O)c4c(O)c(c(/C=N/N5CCN(C/C=C/c6ccccc6)CC5)c(O)c4c3C2=O)NC(=O)/C(C)=C\C=C\[C@H](C)[C@H](O)[C@@H](C)[C@@H](O)[C@@H](C)[C@H](OC(C)=O)[C@@H]1C [Ia, 3-(4-cinnamyl-1-piperazinyl)-iminomethyl rifamycin SV] |  |  | higher therapeutic effect in comparison to rifampicin | considerably longer | low
